Source: patent US5068412A, “(2R,3S,4S)-α-(carboxycyclopropyl)glycine” (Suntory Limited, priority 1988, dated 1991)
Read-outs that look alike come from different tables or passages of the source.

Assays:
[1] = tested on: motoneurones of isolated newborn rat spinal cord (NMDA type receptor); test: depolarizing activity test, isolated newborn rat spinal cord (potential changes in motoneurones recorded from ventral root); conditions: for minimal effective concentration: read-out: Minimum effective concentration; for activity in the presence of 2-APV or Mg++: measured in the presence of 2APV or Mg++; for depolarizing activity, times as potent as L-glutamic acid: rat spinal cord, relative to L-glutamic acid; for Minimum effective concentration, relative activity: relative to L-Glu = 1; for type of activity: spinal cord of a rat
Experimental: The methods used for the electrophysiological experiment in the isolated newborn rat spiral cord were essentially similar to those described by Ohtsuka et al. (Nature, 252, 733-734, 1974). The potential changes generated in the motoneurones induced by L-glutamate analogues, namely, (2R,3S,4S)-α-(carboxycyclopropyl)glycine (1) of this invention and one of the stereoisomers, (2S,3R,4S)-α-(carboxycyclopropyl)-glycine (2) were recorded extracellularly from the ventral root with a suction electrode.

[2] = tested on: motoneurones of isolated newborn rat spinal cord (NMDA type receptor); conditions: newborn rat spinal cord preparation; from Japanese Patent Application No. 129626/88; cited from earlier work
[3] = Fowden et al., Phytochemistry, 8, 437, 1969; cited from earlier work
[4] = isolated newborn rat spinal cord, depolarization recorded extracellularly from ventral root

N[C@@H](C(=O)O)[C@H]1C[C@@H]1C(=O)O [Compound (1), (2R,3S,4S)-α-(carboxycyclopropyl)glycine]
minimal effective concentration [1, 4]: 0.3 µM
activity in the presence of 2-APV or Mg++ [1]: activity disappears
depolarizing activity, times as potent as L-glutamic acid [1]: 300 times
depolarizing activity, times as potent as L-glutamic acid ([1]; listed as (2R,3S,4S)-α-(carboxycyclopropyl)glycine): more than 300 times
Minimum effective concentration, relative activity [1]: 300
depolarizing activity compared with NMDA ([1]; relative to NMDA): much more potent than NMDA
depolarizing activity, times as potent as compound (2) ([1]; relative to compound (2)): 3 times
type of activity [1]: N-methyl-D-aspartic acid (NMDA) like activity

N[C@H](C(=O)O)[C@@H]1C[C@@H]1C(=O)O [(2), (2S,3R,4S)-α-(carboxycyclopropyl)glycine]
minimal effective concentration [1, 4]: 1 µM
activity in the presence of 2-APV or Mg++ [1]: activity disappeared
Minimum effective concentration, relative activity [1]: 100
type of activity [1]: potent NMDA-type depolarization
depolarizing activity, times more potent than L-glutamate [2]: about 100 times

N[C@@H](CCC(=O)O)C(=O)O [L-Glu, L-glutamic acid]
minimal effective concentration ([1]; Rattus norvegicus): 100 µM
Minimum effective concentration, relative activity [1]: 1

N[C@H](C(=O)O)[C@H]1C[C@@H]1C(=O)O [(2S,3S,4S)-α-(carboxycyclopropyl)glycine]
effects caused [3]: hypoglycemia and amesis

N[C@H](C(=O)O)[C@H]1C[C@H]1C(=O)O [(2S,3S,4R)-α-(carboxycyclopropyl)glycine]
effects caused [3]: hypoglycemia and amesis
